Tests used:
Ribonuclease A = target: T1, Ribonuclease A (Bos taurus, UniProt P61823); assay: Visual detection ribonuclease assay, cleavage of Substrate ODN by RNase A; format: biochemical, mammalian; design: key to Sensitivity of Substrate ODN to Ribonuclease A, relative signal intensity: +++ = maximum intensity; ++ = moderate intensity; + = faint but above background; − = negative (identical to background); conditions: visual inspection, UV excitation, Substrate 500 nM, 37° C. 60 minutes
T1 sequence (P61823 27-150): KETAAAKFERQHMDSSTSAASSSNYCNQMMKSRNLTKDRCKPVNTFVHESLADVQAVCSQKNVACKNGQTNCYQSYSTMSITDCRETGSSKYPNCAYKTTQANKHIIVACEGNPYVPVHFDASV
Experimental: Nuclease assays were conducted using the methods of the invention. SEQ ID NO:2 and SEQ ID NO:30 oligonucleotides were individually mixed in 1× Assay Buffer at a concentration of 500 nM (50 pmoles ODN in 100 ul volume) in thin-walled, UV transparent microtubes. RNase A (1 ul, diluted to 0;1 ug/ul) was added to the respective Assay Mixes. […] Assays were set up directly in microtubes as follows:
Assay Mixes were incubated at room temperature for 10 minutes. Assays were visually examined for fluorescence emission directly in the assay tubes without further manipulation. Tubes were suspended above an ultraviolet light source, visually inspected, and photographed using a digital camera. […] The “positive” and “control” reactions appeared markedly different and were easily distinguished. […] The “positive” and “control” reactions were not markedly different to visual inspection.
(§1) Nuclease assays were conducted using the method of the invention with both visual and fluorometric detection methods. Substrates were individually mixed in 1× Assay Buffer at a concentration of 50 nM (50 pmoles oligonucleotide in 1 ml volume) for fluorometric detection or at a concentration of 500 nM (50 pmoles of oligonucleotide in 100 ul volume) for visual detection. Test nucleases were added to respective Assay Mixes beginning at 1 ul stock reagent and proceeding with a 1:10 serial dilution until undetectable. Reaction mixes were incubated at 37° C. for 60 minutes. Fluorometric detection was performed as outlined in Example 2. Visual detection was performed as outlined in Example 1.
(§2) Table 6: Sensitivity of different Substrate ODNs to Ribonuclease A. A series of Substrate ODNs were synthesized and tested for sensitivity to RNase A degradation. Stock enzyme was serial diluted to achieve final concentrations of 1 ng/ml, 100 pg/ml, and 10 pg/ml as indicated. Reactions were examined for fluorescence emission by visual inspection using an ultraviolet (UV) light source for excitation. Results were scored as +++, ++, +, or − based on relative signal intensity.
(§3) It is commonly accepted that fluorometry provides for high sensitivity. To be useful, the visual method must also offer high sensitivity. Assays were conducted using the method of the invention with visual detection. Substrate SEQ ID NO:30 was mixed in 1× Assay Buffer at a concentration of 500 nM (50 pmoles ODN in 100 ul volume) in thin-walled, UV transparent tubes. […] Dilutions of stock RNase A, RNase 1, and RNase T1 were made in water. Undiluted and diluted nuclease (1 ul) was added to respective 100 ul Assay Mixes resulting in final dilution factors of 10^−2, 10^−3, 10^−4, 10^−5, 10^−6, and 10^−7. Assays were incubated at room temperature for 10 minutes and visually examined for fluorescence emission with UV excitation. […] The experiment took about 30 minutes to perform, including 15 minutes to set-up serial dilutions, 10 minutes incubation, and 5 minutes to visualize and photograph. Thus the method of the invention allows for a rapid, simple, and convenient visual assay for the presence of ribonuclease activity.

Ribonuclease T1 = target: T2, Ribonuclease T1 (Aspergillus oryzae, UniProt P00651); assay: Visual detection ribonuclease assay, cleavage of Substrate ODN by RNase T1; format: biochemical; design: key to Sensitivity of Substrate ODN to Ribonuclease T1, relative signal intensity: +++ = maximum intensity; ++ = moderate intensity; + = faint but above background; − = negative (identical to background); conditions: visual inspection, UV excitation, Substrate 500 nM, 37° C. 60 minutes
T2 sequence (P00651 27-130): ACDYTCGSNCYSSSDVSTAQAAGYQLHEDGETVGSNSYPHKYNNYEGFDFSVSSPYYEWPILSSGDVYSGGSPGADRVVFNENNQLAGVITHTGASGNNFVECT
Experimental: as §1
as §2, with “Table 7:” for “Table 6:”, “Ribonuclease T1.” for “Ribonuclease A.”, “RNase T1” for “RNase A”, “of 0.001 units/ml, 0.0001 units/ml,” for “of 1 ng/ml, 100 pg/ml,”, “and 0.00001 units/ml” for “and 10 pg/ml”
as §3

| Substance | Sensitivity of Substrate ODN to Ribonuclease A, relative signal intensity (Ribonuclease A; RNase A 10 pg/ml) | Sensitivity of Substrate ODN to Ribonuclease A, relative signal intensity (Ribonuclease A; RNase A 100 pg/ml) | Sensitivity of Substrate ODN to Ribonuclease A, relative signal intensity (Ribonuclease A; RNase A 1 ng/ml) | Sensitivity of Substrate ODN to Ribonuclease T1, relative signal intensity (Ribonuclease T1; RNase T1 10^−3 units/ml) | Sensitivity of Substrate ODN to Ribonuclease T1, relative signal intensity (Ribonuclease T1; RNase T1 10^−4 units/ml) | Sensitivity of Substrate ODN to Ribonuclease T1, relative signal intensity (Ribonuclease T1; RNase T1 10^−5 units/ml) |
| --- | --- | --- | --- | --- | --- | --- |
| 5′ Fluorescein-AagucA-QSY-7 3′ (NAAGUCAN; 5' fluorescein and 3' QSY-7 labels, nucleotide chemistry not given here) [SEQ ID NO:27] | + | ++ | +++ | +++ | ++ | + |
| 5′ Fluorescein-AagucA-Dabcyl 3′ (NAAGUCAN; 5' fluorescein and 3' Dabcyl labels, nucleotide chemistry not given here) [SEQ ID NO:24] | − | + | +++ | ++ | + | − |
| 5′ Fluorescein-AAgAA-Dabcyl 3′ (NAAGAAN; 5' fluorescein and 3' Dabcyl labels, nucleotide chemistry not given here) [SEQ ID NO:4] | − | − | − | + | − | − |
| 5′ Fluorescein-AcggA-Dabcyl 3′ (NACGGAN; 5' fluorescein and 3' Dabcyl labels, nucleotide chemistry not given here) [SEQ ID NO:14] | − | + | ++ | +++ | +++ | + |
| 5′ Fluorescein-AcgcA-Dabcyl 3′ (NACGCAN; 5' fluorescein and 3' Dabcyl labels, nucleotide chemistry not given here) [SEQ ID NO:13] | − | + | ++ | +++ | ++ | − |
| 5′ Fluorescein-AgcuaA-Dabcyl 3′ (NAGCUAAN; 5' fluorescein and 3' Dabcyl labels, nucleotide chemistry not given here) [SEQ ID NO:22] | − | ++ | +++ | +++ | + | − |
| 5′ Fluorescein-AAaAA-Dabcyl 3′ (NAAAAAN; 5' fluorescein and 3' Dabcyl labels, nucleotide chemistry not given here) [SEQ ID NO:6] | − | − | − | − | − | − |

Reference: US7276337B2, “Compositions and methods for visual ribonuclease detection assays” (Integrated DNA Technologies, Inc., priority 2000, dated 2007)
